{"source": "patent US20250041304A1", "about": "(Eli Lilly and Company, priority 2021, published 2025)", "key": {"[1]": {"tested_on": "HE", "assay": "clinical studies of baricitinib for treating HE (Example 2, with Davos Biosciences GmbH)", "format": "in vivo, human", "conditions": "daily dosage of 4 mg"}, "[2]": {"tested_on": "patients with HE", "conditions": "cited from earlier work; for HE severity after treatment / HECSI score after treatment: after 16 weeks; for HE severity after treatment: 'severe' at start"}}, "note": "Read-outs that look alike come from different tables or passages of the source."}
{"smiles": "CCS(=O)(=O)N1CC(CC#N)(n2cc(-c3ncnc4[nH]ccc34)cn2)C1", "note": "[baricitinib, {1-(ethylsulfonyl)-3-[4-(7H-pyrrolo[2,3-d]pyrimidin-4-yl)-1H-pyrazol-1-yl]azetidin-3-yl}acetonitrile]", "values": [{"measurement": "efficacy in HE (photographic images and additional clinical data)", "setting": "[1]", "result": "effective"}, {"measurement": "treatment outcome of two patients with HE", "setting": "[2]; 4 mg tablet once per day", "result": "successfully treated"}, {"measurement": "HE severity after treatment", "setting": "[2]; case 1: severe hyperkeratotic HE, 4 mg once per day", "result": "almost clear"}, {"measurement": "HECSI score after treatment", "setting": "[2]; case 1, 4 mg once per day, HECSI 55 (severe) at start", "result": 4}, {"measurement": "tolerability / side effects", "setting": "[2]; case 1, 4 mg once per day", "result": "no side effects occurred"}, {"measurement": "quality of life (QOLHEQ) after treatment", "setting": "[2]; case 1, improved from \"strongly impaired\"", "result": "not at all impaired"}, {"measurement": "HE severity after treatment", "setting": "[2]; case 2: severe AD with severe atopic HE, 4 mg per day tapered to 2 mg per day at 12 weeks", "result": "almost clear"}, {"measurement": "HECSI score after treatment", "setting": "[2]; case 2, 4 mg per day tapered to 2 mg at 12 weeks, HECSI 47 (severe) at start", "result": 8}, {"measurement": "adverse event leading to discontinuation", "setting": "[2]; case 2, at 16 weeks", "result": "bacterial corneal ulcer"}, {"measurement": "quality of life (QOLHEQ) after treatment", "setting": "[2]; case 2, improved from \"moderately impaired\"", "result": "not at all impaired"}]}
